Measured values reported in PubChem BioAssay AID1963849 (Molecular Pharmacology Branch, DTP, NCI, 2024).

Tested on: 299254-011-R-J1-PDC complex spheroid viability
Assay: Anticancer human tumor 299254-011-R-J1-PDC patient-derived melanoma cell line growth inhibition [POLQ]
Conditions: for IC50: curve of first compound; for viability, T/C: stronger effect = lower value; active = viability on the fitted dose curve at most 10% of control; inactive = the rest
Method in brief: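 Complex spheroid viability model combining PDC tumour cells with endothelial (HUVEC) and MSC stromal cells. Novobiocin, ART-558 or RP6685 were tested singly and in combination with standard and investigational anticancer drugs. Each was titrated in half-log steps from near clinical Cmax, or from 10 microM where Cmax was unknown.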

[1] = second compound 0.0316 µM, first compound 0.0316 µM
[2] = second compound 0.0316 µM, first compound 0.1 µM
[3] = second compound 0.0316 µM, first compound 0.316 µM
[4] = second compound 0.0316 µM, first compound 1 µM
[5] = second compound 0.0316 µM, first compound 3.16 µM
[6] = second compound 0.0316 µM, first compound 10 µM
[7] = second compound 0.1 µM, first compound 0.0316 µM
[8] = second compound 0.1 µM, first compound 0.1 µM
[9] = second compound 0.1 µM, first compound 0.316 µM
[10] = second compound 0.1 µM, first compound 1 µM
[11] = second compound 0.1 µM, first compound 3.16 µM
[12] = second compound 0.1 µM, first compound 10 µM
[13] = second compound 0.316 µM, first compound 0.0316 µM
[14] = second compound 0.316 µM, first compound 0.1 µM
[15] = second compound 0.316 µM, first compound 0.316 µM
[16] = second compound 0.316 µM, first compound 1 µM
[17] = second compound 0.316 µM, first compound 3.16 µM
[18] = second compound 0.316 µM, first compound 10 µM
[19] = second compound 1 µM, first compound 0.0316 µM
[20] = second compound 1 µM, first compound 0.1 µM
[21] = second compound 1 µM, first compound 0.316 µM
[22] = second compound 1 µM, first compound 1 µM
[23] = second compound 1 µM, first compound 3.16 µM
[24] = second compound 1 µM, first compound 10 µM
[25] = second compound 3.16 µM, first compound 0.0316 µM
[26] = second compound 3.16 µM, first compound 0.1 µM
[27] = second compound 3.16 µM, first compound 0.316 µM
[28] = second compound 3.16 µM, first compound 1 µM
[29] = second compound 3.16 µM, first compound 3.16 µM
[30] = second compound 3.16 µM, first compound 10 µM
[31] = second compound 10 µM, first compound 0.0316 µM
[32] = second compound 10 µM, first compound 0.1 µM
[33] = second compound 10 µM, first compound 0.316 µM
[34] = second compound 10 µM, first compound 1 µM
[35] = second compound 10 µM, first compound 3.16 µM
[36] = second compound 10 µM, first compound 10 µM
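Note: spheroids exposed to drugs for one week before measurement.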
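Throughout, for viability, T/C: percent viability relative to DMSO vehicle control taken as 100%.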

C=CC(=O)N1CCN(c2nc(=O)n(-c3c(C)ccnc3C(C)C)c3nc(-c4c(O)cccc4F)c(F)cc23)C(C)C1 (stereo unspecified) + Cc1cccc(N(C)C(=O)C2C(O)CCN2c2nc(C)cc(C(F)(F)F)c2C#N)c1
inactive: viability, T/C [1] 88.6% | viability, T/C [2] 75.1% | viability, T/C [3] 72.8% | viability, T/C [4] 67.8% | viability, T/C [5] 63.4% | viability, T/C [6] 68.9% | viability, T/C [7] 85.2% | viability, T/C [8] 78.1% | viability, T/C [9] 64% | viability, T/C [10] 79.3% | viability, T/C [11] 69.3% | viability, T/C [12] 58.7% | viability, T/C [13] 99.5% | viability, T/C [14] 81.8% | viability, T/C [15] 88.3% | viability, T/C [16] 77.2% | viability, T/C [17] 74.3% | viability, T/C [18] 64.4% | viability, T/C [19] 88.4% | viability, T/C [20] 73.8% | viability, T/C [21] 63.5% | viability, T/C [22] 64.5% | viability, T/C [23] 82.2% | viability, T/C [24] 67.9% | viability, T/C [25] 84% | viability, T/C [26] 84.8% | viability, T/C [27] 66.4% | viability, T/C [28] 70.1% | viability, T/C [29] 66.1% | viability, T/C [30] 72.8% | viability, T/C [31] 90.5% | viability, T/C [32] 72.7% | viability, T/C [33] 56.4% | viability, T/C [34] 74% | viability, T/C [35] 74.9% | viability, T/C [36] 75.2%
> 10 µM: IC50 (second compound 0.0316 µM) | IC50 (second compound 0.1 µM) | IC50 (second compound 0.316 µM) | IC50 (second compound 1 µM) | IC50 (second compound 3.16 µM) | IC50 (second compound 10 µM)

CC(C)n1c(=O)n(C)c2cnc3cc(F)c(-c4ccc(OCCCN5CCCCC5)nc4)cc3c21 + Cc1cccc(N(C)C(=O)C2C(O)CCN2c2nc(C)cc(C(F)(F)F)c2C#N)c1
> 10 µM: IC50 (second compound 0.0316 µM) | IC50 (second compound 0.1 µM) | IC50 (second compound 0.316 µM) | IC50 (second compound 1 µM) | IC50 (second compound 3.16 µM) | IC50 (second compound 10 µM)
inactive: viability, T/C [1] 98.6% | viability, T/C [2] 102% | viability, T/C [3] 84.6% | viability, T/C [4] 90.1% | viability, T/C [5] 102% | viability, T/C [6] 68.2% | viability, T/C [7] 96.2% | viability, T/C [8] 92.9% | viability, T/C [9] 90.4% | viability, T/C [10] 90.1% | viability, T/C [11] 97% | viability, T/C [12] 81.2% | viability, T/C [13] 93.9% | viability, T/C [14] 98.8% | viability, T/C [15] 89.2% | viability, T/C [16] 88.9% | viability, T/C [17] 94.1% | viability, T/C [18] 76.3% | viability, T/C [19] 92.5% | viability, T/C [20] 96.5% | viability, T/C [21] 89.1% | viability, T/C [22] 98.8% | viability, T/C [23] 93.5% | viability, T/C [24] 67.6% | viability, T/C [25] 113% | viability, T/C [26] 119% | viability, T/C [27] 90.3% | viability, T/C [28] 95.3% | viability, T/C [29] 90.4% | viability, T/C [30] 64.1% | viability, T/C [31] 87.9% | viability, T/C [32] 97% | viability, T/C [33] 106% | viability, T/C [34] 107% | viability, T/C [35] 79.3% | viability, T/C [36] 71.1%

CC1COCCN1c1cc(-c2ccnn2C)c2ccnc(-c3ccn[nH]3)c2n1 (stereo unspecified) + Cc1cccc(N(C)C(=O)C2C(O)CCN2c2nc(C)cc(C(F)(F)F)c2C#N)c1
0.297 µM: IC50 (second compound 0.316 µM)
0.158 µM: IC50 (second compound 3.16 µM)
0.153 µM: IC50 (second compound 10 µM)
0.246 µM: IC50 (second compound 0.0316 µM)
0.221 µM: IC50 (second compound 1 µM)
0.217 µM: IC50 (second compound 0.1 µM)
inactive: viability, T/C [1] 95.1% | viability, T/C [2] 73.4% | viability, T/C [3] 42.1% | viability, T/C [4] 31.5% | viability, T/C [5] 27.3% | viability, T/C [6] 22.5% | viability, T/C [7] 77.4% | viability, T/C [8] 77.2% | viability, T/C [9] 36.9% | viability, T/C [10] 30.4% | viability, T/C [11] 20.2% | viability, T/C [12] 19% | viability, T/C [13] 104% | viability, T/C [14] 73.5% | viability, T/C [15] 48.6% | viability, T/C [16] 30.8% | viability, T/C [17] 23.6% | viability, T/C [18] 14.6% | viability, T/C [19] 111% | viability, T/C [20] 73.1% | viability, T/C [21] 38.2% | viability, T/C [22] 28.2% | viability, T/C [23] 22.1% | viability, T/C [24] 19% | viability, T/C [25] 82.8% | viability, T/C [26] 59.1% | viability, T/C [27] 36.5% | viability, T/C [28] 24.6% | viability, T/C [29] 24.7% | viability, T/C [30] 20.1% | viability, T/C [31] 76.4% | viability, T/C [32] 59.1% | viability, T/C [33] 34% | viability, T/C [34] 29% | viability, T/C [35] 20.7% | viability, T/C [36] 19.4%
